How the values were obtained:
[1] = tested on: mouse muscle cells (C2c12 cells); experiment: eGFP expression in undifferentiated C2c12 cells, coat with or without muscle targeting domain; format: cell-based; settings: GSCG1,2-RHL N:P=0.6:1, DOTMA/DOPE w/w 10:1, same mole equivalent of coat, 24 hours; FIG. 26
Excerpt: Nanocarrier comprising GSCG1,2-RHL (N:P=0.6:1 to mRNA) with DOTMA/DOPE (w/w=10:1 to mRNA) and mRNA was firstly prepared as described. The nanoparticles were then coated with a dendrimer with a muscle targeting domain, the muscle-G1-EEEE (Ac-EEEE)2[…]-(Acp)-NH2), at different mRNA:coating mole ratios, between 0.5:1 to 5:1, preferably around 2.74:1. As a control, the nanoparticles were coated with a dendrimer without a muscle targeting domain, the G1-EEEE, at different mRNA:coating mole ratios, between 0.5:1 to 5:1, preferably around 2.74:1.
In a first experiment, mouse muscle cells (C2c12 cells) were transfected with formulations comprising mRNA expressing eGFP. The formulations used were comprising GSCG1,2-RHL (N:P=0.6:1 to mRNA) with DOTMA/DOPE (w/w=10:1 to mRNA) and mRNA, and coated with either the same equivalent of mole of dendritic PGA with or without the muscle targeting domain. The cells were harvested 24 hours post-transfection. Control: Cells were not transfected with mRNA. The dendrimer with the muscle targeting domain was (Ac-EEEE)2[…]-(Acp)-NH2 (named “muscle-G1-EEEE”. ASSLNIA, SEQ ID NO:1, is the muscle targeting motif). The dendrimer without the muscle targeting domain was (Ac-EEEE)2[…]-NH2 (“[…]1-EEEE”).

[2] = tested on: differentiated mouse muscle cells (C2c12 cells); experiment: eGFP expression in differentiated C2c12 cells, coat with or without muscle targeting domain; format: cell-based
Description: In a second experiment, differentiated mouse muscle cells (C2c12 cells) were transfected with formulations comprising mRNA expressing eGFP. The muscle cells were differentiated as follows: C2c12 cells were seeded and allowed to grow to confluence in a growth medium. Once the cells were confluent, the medium on the cells was replaced with a differentiation medium for 2 days to allow the cells to develop myotube characteristics. The differentiation medium was replaced with the growth medium 30 mins before transfection. The cells were transfected for 24 hours with nanocarriers indicated in FIG. 27 and harvested to assay the eGFP reporter gene expression using a plate reader. The mRNA used expressed eGFP. The growth medium contained high glucose DMEM (Gibco), 10% FBS (Gibco), 2 mM L-glutamine (Gibco). The differentiated medium contained high glucose DMEM (Gibco), 2% horse serum (Gibco), 2 mM L-glutamine (Gibco), 1 uM insulin.
As in the first experiment, the formulations used were comprising GSCG1,2-RHL (N:P=0.6:1 to mRNA) with DOTMA/DOPE (w/w=10:1 to mRNA) and mRNA, and coated with either the same equivalent of mole of dendritic PGA with or without the muscle targeting domain. The cells were harvested 24 hours post-transfection. Control: Cells were not transfected with mRNA or transfected with mRNA alone. The dendrimer with the muscle targeting domain was muscle-G1-EEEE. […]

[3] = Dynamic light scattering: hydrodynamic size and polydispersity index (PDI) of nanoparticles; format: physicochemical
Procedure, shortened: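 Hydrodynamic size measured by DLS (Stokes-Einstein), PDI from cumulants fit per ISO 13321/22412. Samples diluted 16× in 25 mM HEPES, water as dispersant, 25° C; PDI measured on dendrimer:nucleic acid 8:1 nanoparticles.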

[4] = Zeta potential of nanoparticles (electrophoretic light scattering); format: physicochemical
Excerpt: Zeta potential is a measurement of the magnitude of the electrostatic or charge repulsion/attraction between particles. This can be determined by analysing particle mobility and charge (Zeta potential) using the Electrophoretic Light Scattering (ELS) technique.
Zeta potential is a measurement of the magnitude of the electrostatic or charge repulsion/attraction between particles. This can be determined by analysing particle mobility and charge (Zeta potential) using the Electrophoretic Light Scattering (ELS) technique. […] Parameters: reference material: polystyrene latex, dispersant: water, 25° C. The measurements of the zeta potential were carried out using the Zetasizer Advance Series—Pro (Malvern Panalytical Ltd, Malvern, UK) according to the manufacturer's instructions.

[5] = tested on: Mouse muscle cells (C2c12); experiment: eGFP expression (RFU/mg) in C2c12 muscle cells, muscle-targeting dendrimers; format: cell-based; settings: N:P=0.6:1, DOTMA:DOPE w/w 10:1, 24 hours post-transfection; FIG. 9
Description: Cell lines, transfection reagents and mRNA. C2c12 cells were maintained in DMEM medium with 10% (v/v) FCS and 1% (v/v) L-glutamine in a humidified atmosphere in 5% CO2, and 37° C. The Alexa Fluor 488 tagged mRNA, expressing an eGFP, was purchased from RiboPro. The mRNA either expressing an eGFP or firefly luciferase was purchased from Trilink. DOTMA:DOPE, 1:1 (w/w) were obtained from Invitrogen or Encapsula NanoSciences LLC.
Transfection procedure. 24 hours before transfection, C2c12 cells were seeded in 96well plates in order to reach 70% confluence. mRNA transfection complexes were formed by mixing mRNA with the dendrimers in 25 mM HEPES buffer, then with DOTMA:DOPE in 25 mM HEPES buffer at 25° C. The transfection complexes were then overlaid to the cells in full growth medium. The cells were harvested 4 hours after transfection for FACS analysis or 24 hours post transfection for reporter genes assays.
Two variants (NTX2 and NTX3) of the peptide dendrimer GSCG1,2-RL, 3-LR ((LR)8(KRL)4(KRL)2KGSC-NH2) were made which include the ASSLNIA (SEQ ID NO:1) muscle targeting peptide. Transfection of muscle cells with GSCG1,2-RL, 3-LR, NTX2 ((LR)8(KRL)4(KRL)2[…](Acp)-NH2) or NTX3 ((LR)8(KRL)4(KRL)2[…](Acp)-NH2) was performed using eGFP mRNA and transfection efficiency was assayed using either flow cytometry or the transgene expression assay. […]
Transgene expression assay: The cells were washed twice with PBS and incubated with 50 ul of 1× M-PER lysis buffer (Thermo 11874111). […] 40 ul of lysate from each well was transferred to all black 96 well plates for quantification of eGFP relative fluorescence unit (RFU), absorbance at 535 nm, using Molecular devices SpectraMax iD5.
Protein content determination: The protein content of each cell lysate was determined by mixing the lysate (25 μL) with Pierce™ BCA Protein Assay Kit (200 ul, Thermo Scientific). After 30 minutes of 37° C. incubation in at dark, absorbance was measured at 562 nm with Molecular devices SpectraMax iD5 and converted to protein concentration using a BSA standard curve. […]

C2c12 muscle cells = experiment: Uptake of Alexa488 labelled mRNA in C2c12 cells, flow cytometry; format: cell-based, mouse; settings: NTX3 N:P=0.6:1, DOTMA:DOPE w/w 10:1, 4 hours; FIG. 18
Description: FIG. 18. […] Labelled mRNA delivery to cells. Mouse muscle cells (C2c12) took up mRNA labelled with an Alexa488 fluorophore following transfection. The cells were transfected with labelled mRNA alone, labelled mRNA with NTX3 (N:P=0.6:1) and DOTMA:DOPE for 4 hours, and the uptake of the mRNA was measured by flow cytometry. NTX3 is GSCG1,2-RL, 3-LR linked with a muscle cell targeting peptide with 6 histidines. DOTMA:DOPE was used at w/w=10:1 to mRNA.
C2c12 cells were maintained in DMEM medium with 10% (v/v) FCS and 1% (v/v) L-glutamine in a humidified atmosphere in 5% CO2 and 37° C. The Alexa Fluor 488 tagged mRNA, expressing an eGFP, was purchased from RiboPro. 24 hours before transfection, C2c12 cells were seeded in 96 well plates in order to reach 70% confluence. mRNA transfection complexes were formed by mixing mRNA with the dendrimers in 25 mM HEPES buffer, then with DOTMA:DOPE (1:1 w/w) in 25 mM HEPES buffer at 25° C. The transfection complexes (“NTX3”) were then overlaid to the cells in full growth medium. The cells were harvested for FACS analysis 4 hours after transfection. Cells medium and PBS used to wash each well, was collected from each treatment before the addition of […] EDTA in PBS. After 10 minutes of incubation at 37° C., the cells were gently detached from the plates and pelleted down at 400 g for 8 minutes, 4° C. […] Collected data were analysed using FlowJo 10.0 software.

[6] = GSCG1,2-RHL N:P 0.6:1, DOTMA/DOPE nanoparticles coated at 2.06:1 (dendrimer to mRNA)
[7] = GSCG1,2-RHL N:P 0.6:1, DOTMA/DOPE nanoparticles coated at 2.72:1 (dendrimer to mRNA)

Substance	eGFP expression versus coat without muscle targeting domain [1]	eGFP expression versus coat without muscle targeting domain ([2]; GSCG1,2-RHL N:P=0.6:1, DOTMA/DOPE w/w 10:1, same mole equivalent of coat, 24 hours, FIG. 27)	mRNA transfection versus nanoparticles coated with dendrimer without the targeting domain ([2]; coat mole ratio 2.72:1 and 2.06:1 (dendrimer to mRNA))	PDI [3, 6]	size [3, 6] [nm]	PDI [3, 7]	size [3, 7] [nm]	zeta potential [4, 6] [mV]	zeta potential [4, 7] [mV]	increase in eGFP expression compared to GSCG1,2-RL, 3-LR [5]	cells successfully transfected (uptake of Alexa488 labelled mRNA) (C2c12 muscle cells)
(Ac-EEEE)2KGSCGAASSLNIA-(Acp)-NH2) [muscle-G1-EEEE]	dramatic increase in eGFP expression	dramatic increase in eGFP expression	improved mRNA transfection	0.15	176	0.14	172	~38.7	~44.0	–	–
(LR)8(KRL)4(KRL)2KGSCHHHHHHGAASSLNIA(Acp)-NH2 [NTX3]	–	–	–	–	–	–	–	–	–	three-fold	approximately 100%
